Experiment [1] has as its system p-ERK in NCI-H441 cells (KRAS G12V mutation). Kind of experiment: Cell p-ERK assay (HTRF) in NCI-H441 cells. Type of experiment: cell-based, human. The note with it: NCI-H441 cells, 3 h compound incubation, HTRF p-ERK T202/Y204, read-out: H441 p-ERK IC50. In a few lines:
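Cells are plated (AsPC-1 at 10000, NCI-H441 at 20000 per well) and cultured overnight. Next day compound is added in a 3.16-fold dilution series with 0.1% DMSO and left 3 h. After lysis, p-ERK antibodies incubate 4 h before HTRF reading and four-parameter IC50 fitting.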
Background: In TR-FRET formats the signal depends on donor and acceptor labels being close together.

The subject of experiment [2] is p-ERK in AsPC-1 cells (KRAS G12D mutation). Kind of experiment: Cell p-ERK assay (HTRF) in AsPC-1 cells. Type of experiment: cell-based, human. The following applies: AsPC-1 cells, 3 h compound incubation, HTRF p-ERK T202/Y204, read-out: AsPC-1 p-ERK IC50. The protocol:
AsPC-1 cells were purchased from ATCC, Cat. No. CRL-1682: NCI-H441 cells were purchased from ATCC, Cat. No. HTB-174: RPMI-1640 medium was purchased from Gibco, Cat. No. I1875-093: FBS was purchased from Gibco, Cat. No. 10099-141C: penicillin/streptomycin double-antibiotic solution (PS) was purchased from Gibco, Cat. No. 15140-122: trypsin (containing EDTA) was purchased from Gibco, Cat. No. 25200-072; DMSO was purchased from VWRAMRESCO, Cat. No. 0231-500ML; 96-well cell culture plates were purchased from Corning, Cat. No. 3599: white-bottomed, opaque 96-well plates were purchased from Cisbio, Cat. No. 66PL96025; Advance ERK phospho-T202/Y204 kit was purchased from Cisbio, Cat. No. 64AERPEH; cell counter was purchased from CHEMOMETEC, model: NC-200; microplate reader was purchased from PerkinElmer, model: EnVision.
AsPC-1, a human pancreatic cancer cell strain endogenously containing a KRAS^G12D mutation, was cultured in a complete medium containing RPMI-1640+10% FBS+1% PS. NCI-H441, a human non-small cell lung cancer cell strain endogenously containing a KRAS^G12V mutation, was cultured in a complete medium containing RPMI-1640+10% FBS+1% PS.
The cells were digested with trypsin (containing EDTA), collected in their corresponding complete media, and counted. The density of the cell suspensions was adjusted with their corresponding complete media, and 10000 AsPC-1 cells or 20000 NCI-H441 cells per well were seeded into a 96-well cell culture plate, with the volume of the medium in each well being 80 μL.
The cell culture plate was incubated in an incubator at 37° C. with 5% CO2 overnight. A series of 3.16-fold gradient dilutions of a 1000- compound stock solution were prepared with DMSO, and then diluted 200-fold with the complete medium described above to give 5′ compound stock solutions. On the day after cell seeding, 20 μL of the 5× compound stock solution was added to each cell culture well. As a result, the final concentration of the compound in the cell culture well became 1×, and the DMSO content in the well was 0.1%. In addition to the compound-treated wells described above, cell-containing DMSO control wells were also set. A complete medium containing 0.5% DMSO was added at 20 μL/well. After the mixture was well mixed, the culture plate was incubated in the incubator at 37° C. with 5% CO2 for another 3 h. The medium was then removed from the culture wells, and 50 μL of cell lysis buffer (from Advance ERK phospho-T202,Y204 kit) was added to each well. The mixture was well mixed and incubated for 30 min. Then, 16 μL of the mixture was transferred to a white-bottomed, opaque 96-well assay plate, and separately, 16 μL of cell lysis buffer was added to additional wells (serving as blank wells) in the assay plate. After the transfer was completed, 4 μL of p-ERK HTRF antibody mixture (from Advance ERK phospho-T202/Y204 kit) was added to each well of the assay plate, followed by a 4-hour incubation. The HTRF signal values (RLU) were then measured using a microplate reader, and the inhibition rate of the compound against p-ERK levels was calculated as follows: IR (%)=(RLUDMSO−RLUcompound)/(RLUDMSO−RLUblank)×100%, where RLUDMSO is the average HTRF signal value from the DMSO control well samples, RLUblank is the average HTRF signal value from the blank well samples, and RLUcompound is the HTRF signal value from the compound-treated well samples. Using an XLfit software, the IR (%) values were plotted against the logarithm of the compound concentrations, and the dose-response curves were fitted using the four-parameter method to calculate the IC50 values.

Like-named read-outs stand apart in the source and are kept apart here.

Consider `CCn1c(-c2cc(OCCN3CCS(=O)(=O)CC3)cnc2[C@H](C)OC)c2c3cc(ccc31)-c1csc(n1)C[C@H](NC(=O)[C@H]1[C@H](C)[C@@H]1C)C(=O)N1CCC[C@H](N1)C(=O)OCC(C)(C)C2` (atropisomer, axis not shown; (Sa)) [Compound Z470, (1r,2R,3S)—N-((6^3S,4S,Z)—(Sa)-1^2-(5-(2-(1,1-dioxidothiomorpholino)ethoxy)-2-((S)-1-methoxyethyl)pyridin-3-yl)-1^1-ethyl-10,10-dimethyl-5,7-dioxo-6^1,6^2,6^3,6^4,6^5,6^6-hexahydro-1^1H-8-oxa-2(4,2)-thiazola-1(5,3)-indola-6(1,3)-pyridazinacycloundecaphane-4-yl)-2,3-dimethylcyclopropane-1-carboxamide], for which the figures for the IC50 in experiment [1] and in experiment [2] were 69.4 nM and 35.3 nM, respectively.
`CCn1c(-c2cc(C#CCN3CCC(C#N)CC3)cnc2[C@H](C)OC)c2c3cc(ccc31)-c1csc(n1)C[C@H](Nc1nnc3cc(C)ccn13)C(=O)N1CCC[C@H](N1)C(=O)OCC(C)(C)C2` (atropisomer, axis not shown; (Ra)) [Compound Z959]: the IC50 (in general, the concentration at which inhibition is half-maximal) in experiment [1] (Homo sapiens, NCI-H441, 3 h) came out at 1.01 nM; in experiment [2] (Homo sapiens, ASPC1, 3 h), 4.15 nM.
The like results for `CCn1c(-c2cc(C#CCN3CCCOCC3)c[n+]([O-])c2C(C)C)c2c3cc(ccc31)-c1csc(n1)C[C@H](NC(=O)[C@H]1[C@H](C)[C@@H]1C)C(=O)N1CCC[C@H](N1)C(=O)OCC(C)(C)C2` (atropisomer, axis not shown; (Ra)) [Compound Z950, (1r,2R,3S)—N-((6^3S,4S,Z)—(Ra)-1^2-(5-(3-(1,4-oxazepan-4-yl)prop-1-yn-1-yl)-2-isopropylpyridin-1-oxide-3-yl)-1^1-ethyl-10,10-dimethyl-5,7-dioxo-6^1,6^2,6^3,6^4,6^5,6^6-hexahydro-1^1H-8-oxa-2(4,2)-thiazola-1(5,3)-indola-6(1,3)-pyridazinacycloundecaphane-4-yl)-2,3-dimethylcyclopropane-1-carboxamide] were, in that order, 0.16 nM and 0.27 nM.
With `CCn1c(-c2cc(C#CC(=O)N3CCCOCC3)cnc2[C@H](C)OC)c2c3cc(ccc31)-c1csc(n1)C[C@H](NC(=O)[C@H]1[C@H](C)[C@@H]1C)C(=O)N1CCC[C@H](N1)C(=O)OCC(C)(C)C2` [Compound Z810A, (1r,2R,3S)—N-((6^3S,4S,Z)-1^2-ethyl-1^2-(5-(3-(1,4-oxazepan-4-yl)-3-oxoprop-1-yn-1-yl)-2-((S)-1-methoxyethyl)pyridin-3-yl)-10,10-dimethyl-5,7-dioxo-6^1,6^2,6^3,6^4,6^5,6^6hexahydro-1^1H-8-oxa-2(4,2)-thiazola-1(5,3)-indola-6(1,3)-pyridazinacycloundecaphane-4-yl)-2,3-dimethylcyclopropane-1-carboxamide], the IC50 was found to be 0.63 nM in experiment [1] and 1.22 nM in experiment [2] (Homo sapiens, ASPC1, 3 h).
`C=C1CCN2CCN(c3cnc([C@H](C)OC)c(-c4c5c6cc(ccc6n4CC)-c4csc(n4)C[C@H](NC(=O)[C@H]4[C@H](C)[C@@H]4C)C(=O)N4CCC[C@H](N4)C(=O)OCC(C)(C)C5)c3)C[C@H]2C1` (atropisomer, axis not shown; (Sa)) [Compound Z549, (1r,2R,3S)—N-((6^3S,4S,Z)-1^1-ethyl-(Sa)-1^2-(2-((S)-1-methoxyethyl)-5-((R)-8-methyleneoctahydro-2H-pyrido[1,2-a]pyrazin-2-yl)pyridin-3-yl)-10,10-dimethyl-5,7-dioxo-6^1,6^2,6^3,6^4,6^5,6^6-hexahydro-1′H-8-oxa-2(4,2)-thiazola-1(5,3)-indola-6(1,3)-pyridazinacycloundecaphane-4-yl)-2,3-dimethylcyclopropane-1-carboxamide]: the IC50 in experiment [1] amounted to 26.7 nM; in experiment [2] it was 32.6 nM.
For the compound `CCn1c(-c2cc(C#CCN3CCC3)cnc2[C@H](C)OC)c2c3cc(ccc31)-c1csc(n1)C[C@H](NC(=O)CC1CC1)C(=O)N1CCC[C@H](N1)C(=O)OCC(C)(C)C2` [Compound Z999, N-((6^3S,4S,Z)-1^2-(5-(3-(azetidin-1-yl)prop-1-yn-1-yl)-2-((S)-1-methoxyethyl)pyridin-3-yl)-1^1-ethyl-10,10-dimethyl-5,7-dioxo-6^1,6^2,6^3,6^4,6^5,6^6-hexahydro-1^1H-8-oxa-2(4,2)-thiazola-1(5,3)-indola-6(1,3)-pyridazinacycloundecaphane-4-yl)-2-cyclopropylacetamide], the IC50 stood at 2.16 nM in experiment [1] (Homo sapiens, NCI-H441, 3 h) and 3.57 nM in experiment [2] (Homo sapiens, ASPC1, 3 h).
